How the values were obtained:
[1] = Measurement of particle size, polydispersity index and zeta potential of lipid nanoparticle (Zetasizer); format: physicochemical; conditions: lipid nanoparticle containing siRNA; for Particle size (nm) / PDI: main lipid/DPPC/cholesterol=45/10/45; for Particle size (nm): Z-average in ultrapure water; for PDI: ultrapure water; for Zeta potential (mV): pH 7.4 Tris-HCl
Experimental: 30 μL of each of the dialyzed lipid nanoparticle-containing solutions obtained by the above operation was measured out, 800 μL of ultrapure water was added to dilute the lipid nanoparticle-containing solution, and the diluted preparation solution was used to measure the particle size (nm) and the polydispersity index (PDI) by using a Zetasizer (manufactured by Malvern Panalytical, Zetasizer nano Ultra). The particle size was evaluated by Z-average in ultrapure water. The zeta potential was measured by using pH 7.4 Tris-HCl as a dilute solution.

[2] = siRNA / mRNA encapsulation rate of lipid nanoparticle (RiboGreen); format: physicochemical; conditions: siRNA encapsulation rate of lipid nanoparticle
Experimental: The siRNA encapsulation rate and the mRNA encapsulation rate of the lipid nanoparticle were obtained as follows. First, a surfactant (Sigma-Aldrich, Triton (registered trademark), X-100 (reducing type)) was added to the lipid nanoparticle-containing solution to disrupt the lipid nanoparticle to release the encapsulated siRNA or mRNA. The amounts of the lipid nanoparticle-containing solution and the surfactant were adjusted such that the siRNA or the mRNA was 2 pmol and the surfactant was 1% in 40 μL of the solution after adding the surfactant to the lipid nanoparticle-containing solution. Next, the RiboGreen reagent (reagent that reacts with siRNA to emit fluorescence, manufactured by Thermo Fisher Scientific, Quant-iT (registered trademark) RiboGreen (registered trademark) RNA Assay Kit) was added to the solution, and the fluorescence intensity was measured under conditions of an excitation wavelength of 480 nm and a fluorescence wavelength of 520 nm with a fluorescence intensity meter (manufactured by TECAN, Infinite M200). Specifically, 75 μL of the RiboGreen reagent diluted to 1/2000 was added to a diluted solution obtained by adding 65 μL of citrate buffer to 10 μL of the solution, and the fluorescence intensity was measured. This makes it possible to relatively measure the total amount of the siRNA or the total amount of the mRNA present in the solution.
Subsequently, the RiboGreen reagent was added to the lipid nanoparticle-containing solution without adding a surfactant, and the fluorescence intensity was measured in the same manner with a fluorescence intensity meter. By not adding a surfactant, it is possible to relatively measure the amount of the siRNA or the mRNA free in the solution without being encapsulated in the lipid nanoparticle.
Then, the fluorescence intensity obtained from the solution to which the surfactant was added obtained as described above was fluorescence intensity a, and the fluorescence intensity thus obtained from the solution to which no surfactant was added obtained as described above was fluorescence intensity b, and according to the expression (a−b)/a×100, the siRNA encapsulation rate (%) or the mRNA encapsulation rate (%) of the lipid nanoparticle was obtained. Each of fluorescence intensity a and fluorescence intensity b is a value obtained by subtracting a blank from the arithmetic average value of the results of three measurements for each solution. The blank was measured by carrying out the same operation on a well containing water containing no cell or lipid nanoparticle.

[3] = system: HT1080-EGFP (human/fibrosarcoma) cells; test: Evaluation of knockdown effect (GFP assay), Cell experiment 1; format: cell-based; conditions: lipid nanoparticle containing siRNA against EGFP; fluorescence intensity with control cells without lipid nanoparticle set at 100
Experimental: A cell experiment was carried out by using HT1080-EGFP (human/fibrosarcoma) cells in order to evaluate lipid nanoparticles encapsulating an siRNA produced by using the lipids of the Examples and the Comparative Examples. These cells are cells provided with a green fluorescent protein gene (EGFP). The expression of EGFP can be easily confirmed by measuring the fluorescence intensity of a solution in which the cells are lysed, and thus by acting lipid nanoparticles encapsulating an siRNA that suppresses the expression of EGFP and observing any decrease in fluorescence intensity, the performance of the lipid nanoparticles used can be evaluated. Hereinafter, the procedure of the cell experiment will be shown.
(§1) A. Provision of Cells • (i) A liquid medium (DMEM/Ham's F12, FBS+, P/S+) (FBS: fetal bovine serum, P/S: antibiotic) was taken out from a refrigerator and temperature-controlled in an incubator set at 37° C. • (ii) A cryotube containing the cells was taken out from a −80° C. freezer and thawed at once in an incubator set at 37° C. • (iii) A stock solution of the thawed cells was collected in a capped test tube. • (iv) The tube containing the cells was washed with the liquid medium, and the wash was also collected in the test tube. • (v) The tube was subjected to a centrifuge to precipitate the cells. • (vi) The supernatant was aspirated, and the liquid medium was added and gently tapped to disperse the cells. • (vii) A small amount of the cells-dispersed liquid medium was collected, and the number of cells was observed and counted under a microscope. • (viii) The cells were seeded in a 24-well plate such that the number of cells was 2×10^4 cells per well. For the plate for an LDH assay described later, the cells were seeded in a 96-well plate such that the number of cells was 4×10^3 cells per well. • (ix) The 24-well plate or the 96-well plate was placed in an incubator, and the cells were cultured for 24 hours under conditions of 37° C. and 5% CO2.
(§2) The produced lipid nanoparticles were introduced into cells. • (i) Fetal bovine serum (FBS) was added to a liquid medium (FBS-, P/S-) temperature-controlled as in (i) of A above, in such a way as to reach 10%. • (ii) A 24-well plate was taken out from an incubator, and the liquid medium supernatant in the 24-well plate was aspirated and washed with phosphate buffered saline (PBS). • (iii) 400 μL of the liquid medium produced in (i) above was added to the washed 24-well plate. In addition, 100 μL of an LNP solution having an adjusted concentration was added. • (iv) The 24-well plate was placed in the incubator, and the cells were cultured (for 24 hours). • (v) After 24 hours, the liquid medium supernatant in the 24-well plate was aspirated, and 500 μL of a liquid medium containing 10% FBS (FBS+/P/S+) was added. • (vi) The 24-well plate was placed in the incubator, and the cells were cultured for 24 hours under conditions of 37° C. and 5% CO2.
By carrying out a GFP assay, the EGFP expression level in cells was measured to evaluate the effect of knocking down the green fluorescent protein gene (EGFP) by lipid nanoparticles. • (i) A 24-well plate was taken out from an incubator and washed with PBS. • (ii) A 1% octylglucoside solution to which a protease inhibitor was added was added in order to disrupt cells. Stirring with a pipette lysed the cells. • (iii) The cell lysate was transferred to an Eppendorf tube and subjected to a centrifuge. • (iv) 150 μL of the supernatant was collected and added to a plate for fluorescence measurement. • (v) The fluorescence intensity was measured under conditions of an excitation wavelength of 485 nm and a fluorescence wavelength of 535 nm with a plate reader (manufactured by TECAN, Infinite M200). The fluorescence intensity was calculated with the fluorescence intensity of control cells to which no lipid nanoparticle was added set at 100.

[4] = system: HT1080-EGFP (human/fibrosarcoma) cells; test: Evaluation of toxicity: CCK-8 assay; format: cell-based; conditions: lipid nanoparticle containing siRNA; absorbance relative to control cells without lipid nanoparticle set at 1.00
Experimental: as §1, §2
For Examples 1 to 9, a CCK-8 assay or an LDH assay was carried out to measure the metabolic activity of viable cells and relatively quantify the number of surviving cells to evaluate the toxicity of lipid nanoparticles.
(a) CCK-8 Assay • (i) Fetal bovine serum (FBS) and a viable cell counting kit (manufactured by DOJINDO LABORATORIES, Cell Count Kit-8) was added to a liquid medium (FBS-, P/S-) temperature-controlled as in (i) of A above, such that FBS was 10% and the kit was 10%. • (ii) A 24-well plate was taken out from an incubator. The liquid medium was removed, and 315 μL of the liquid medium containing the viable cell counting kit produced in (i) above was added. • (iii) The liquid medium was aged for 1 hour in the incubator. • (iv) The 24-well plate was taken out, and the absorbance was measured under conditions of a measurement wavelength of 450 nm and a target wavelength of 630 nm with a plate reader (manufactured by TECAN, Infinite M200). The absorbance was calculated with the absorbance of control cells to which no lipid nanoparticle was added set at 1.00. When the obtained value was 0.80 or more and 1.00 or less, a rating of double-circle (excellent) was given, when the obtained value was 0.50 or more and less than 0.80, a rating of circle (good) was given, when the obtained value was 0.20 or more and less than 0.50, a rating of triangle (fair) was given, and when the obtained value was less than 0.20, a rating of X-mark (poor) was given.

Particle size (nm) [1] [nm]	PDI [1]	Zeta potential (mV) [1] [mV]	Encapsulation rate (%) [2] [%]	Structure (SMILES)	GFP Assay [3]	CCK Assay [4]
94.2	0.159	8.28	100	CCCCCCCC/C=C\CCCCCCCCC(CCCCCCC/C=C\CCCCCCCC)OC(=O)C(CC(=O)O)NC(=O)C(N)CCCCN (stereo not drawn) [Example 7, 3-(2,6-diaminohexanamido)-4-(((9Z,27Z)-hexatriaconta-9,27-dien-18-yl)oxy)-4-oxobutanoic acid]	28	◯ (when the obtained value was 0.50 or more and less than 0.80, a rating of circle (good) was given)
162.5	0.147	19.1	100	CCCCCCCC/C=C\CCCCCCCCC(CCCCCCC/C=C\CCCCCCCC)OC(=O)C(CCC(=O)O)NC(=O)C(N)CCCCN (stereo not drawn) [Example 8, 4-(2,6-diaminohexanamido)-5-(((9Z,27Z)-hexatriaconta-9,27-dien-18-yl)oxy)-5-oxopentanoic acid]	47	⊚ (When the obtained value was 0.80 or more and 1.00 or less, a rating of double-circle (excellent) was given)
107.6	0.093	24.6	84	CCCCCCCC/C=C\CCCCCCCCC(CCCCCCC/C=C\CCCCCCCC)OC(=O)C(CCC(=O)O)NC(=O)C(N)Cc1c[nH]cn1 (stereo not drawn) [Example 9, 4-(2-amino-3-(1H-imidazol-4-yl)propanamido)-5-(((9Z,27Z)-hexatriaconta-9,27-dien-18-yl)oxy)-5-oxopentanoic acid]	56	⊚ (When the obtained value was 0.80 or more and 1.00 or less, a rating of double-circle (excellent) was given)
